Literature values in PMC7306898, “Concentration-Dependent Activity of Hydromethylthionine on Clinical Decline and Brain Atrophy in a Randomized Controlled Trial in Behavioral Variant Frontotemporal Dementia” (Journal of Alzheimer's Disease, 2020).
Where two headings read alike, the source gives them in different places.

Key:
[1] = cited from earlier work; for Plasma Half-life, Mean: value in parentheses ref U.S. approved product labeling
[2] = design: method as in Investigator's Brochure; settings: coadministration of reduced leuco (LMT) form with food ref Investigator's Brochure; cited from earlier work
[3] = system: serotonin transporter; design: method as in PMID 21542830; settings: in vitro ref 73; cited from earlier work
[4] = system: mitochondrial activity; design: method as in PMID 22419586, PMID 17928358; settings: cited from earlier work
[5] = system: TDP-43; design: method as in PMID 19560462; settings: cell models ref 34; read-out: EC50, inhibition of aggregation of TDP-43; cited from earlier work
[6] = system: mice; design: method as in U.S. National Toxicology Program; settings: cited from earlier work
[7] = system: male rats; design: method as in U.S. National Toxicology Program; settings: pancreatic islet cell adenoma and adenoma or carcinoma ref U.S. National Toxicology Program; cited from earlier work
[8] = system: subjects with a clinical diagnosis within the FTLD spectrum; design: method as in Investigator's Brochure; settings: MTC 138 mg/day MT, cited from earlier work
[9] = system: subjects with mild or moderate AD; settings: cited from earlier work
[10] = system: subjects with AD; design: method as in TRx-014-001; settings: cited from earlier work
[11] = ref U.S. approved product labeling
[12] = single dose ref U.S. approved product labeling
[13] = Biphasic ref U.S. approved product labeling

Row | Compound | Plasma Half-life, range or single value [1, 11] | also measured
1 | N[C@@H]1C[C@H]1c1ccccc1 (racemic) [Tr a n yl c yp r o mi n e, Tranylcypromine] | 2.5 h | 
2 | Oc1ccc2c(c1)N=C(N1CCNCC1)c1cc(Cl)ccc1O2 [8-hydroxyamoxapine] | 30 h | 
3 | CN(C)CCC=C1c2ccccc2CCc2ccccc21 [Amitriptyline] | 9 to 25 h | 
4 | Clc1ccc2c(c1)C(N1CCNCC1)=Nc1ccccc1O2 [Amo xapine, Amoxapine] | 8 h | 
5 | CC(NC(C)(C)C)C(=O)c1cccc(Cl)c1 (centres unmarked) [Bupropion] | 12 to 30 h | Plasma Half-life, Mean [1]: 21 h
6 | O=C1CC2(CCCC2)CC(=O)N1CCCCN1CCN(c2ncccn2)CC1 [Buspirone] |  | Plasma Half-life [1, 12]: 2 to 3 h
7 | CN(C)CCCC1(c2ccc(F)cc2)OCc2cc(C#N)ccc21 (centres unmarked) [Citalopram] | 35 h | increase in half-life reported in elderly [1, 11]: 30-50%
8 | CN(C)[C@@H](CCOc1cccc2ccccc12)c1ccccc1 [Dapoxetene] |  | Plasma Half-life, initial [1, 13]: 1.5 h; Plasma Half-life, terminal [1, 13]: 20 h
9 | CNCCC=C1c2ccccc2COc2ccccc21 [Des meth yldoxepin, Desmethyldoxepin] | 28 to 52 h | 
10 | CNCCCN1c2ccccc2CCc2ccccc21 [Desipramine] | 12 to 27 h | 
11 | CNCCCN1c2ccccc2CCc2ccc(Cl)cc21 [Desmeth ylclo mipramine, Desmethylclomipramine] | 54 to 77 h | Plasma Half-life, Mean [1]: 69 h
12 | CN(C)CC(c1ccc(O)cc1)C1(O)CCCCC1 (centres unmarked) [Desven la fa xin e, Desvenlafaxine] | 11 h | 
13 | CN(C)CC/C=C1\c2ccccc2CSc2ccccc21 [Dosulepin] | 19 to 33 h | Plasma Half-life for “its metabolites” [1, 11]: 23 to 46 h
14 | CN(C)CCC=C1c2ccccc2COc2ccccc21 [Doxepin] | 15.3 h | 
15 | CC(NC(C)(C)C)C(O)c1cccc(Cl)c1 (centres unmarked) [Erythrohydrobupropion] | 23 to 43 h | Plasma Half-life, Mean [1]: 33 h
16 | CN(C)CCC[C@@]1(c2ccc(F)cc2)OCc2cc(C#N)ccc21 [Escitalopram] | 27 to 32 h | increase in half-life reported in elderly [1, 11]: 50%
17 | CNCCC(Oc1ccc(C(F)(F)F)cc1)c1ccccc1 (centres unmarked) [Fluoxetine] |  | Plasma Half-life ([1]; Acute ref U.S. approved product labeling): 24 to 72 h; Plasma Half-life ([1]; Chronic ref U.S. approved product labeling): 96 to 140 h
18 | COCCCC/C(=N\OCCN)c1ccc(C(F)(F)F)cc1 [Fluvoxamine] | 15.6 h | 
19 | C[C@H]1NC(C)(C)CO[C@]1(O)c1cccc(Cl)c1 [Hydroxybupropion] | 15 to 25 h | Plasma Half-life, Mean [1]: 20 h
20 | CN(C)c1ccc2c(c1)Sc1cc(N(C)C)ccc1N2 [LMT, leuco-methylthioninium] |  | lowering of peak concentrations with food [2]: 8%
21 | CN(C)c1ccc2nc3ccc(=[N+](C)C)cc-3sc2c1 [MT, methylthioninium] |  | IC50 [3]: 1200 nM; concentrations at which mitochondrial activity is enhanced [4]: 10 to 100 nM; EC50 [5]: 50 nM
22 | CN(C)c1ccc2nc3ccc(=[N+](C)C)cc-3sc2c1 [MTC, methylthioninium chloride] |  | carcinogenic activity ([6]; female mice, malignant lymphoma ref U.S. National Toxicology Program): equi vocal eviden ce of; carcinogenic activity ([6]; male mice, carcinoma and adenoma or carcinoma in the small intestine ref U.S. National Toxicology Program): some evidenc e of car cinogeni c activit y; carcinogenic activity [7]: som e evi dence of carcino genic; MMSE scores, mean above Baseline ([8]; 12 months ref Investigator's Brochure): 1.6 units; ACE-R scores improved by a mean (mean ± SEM) ([8]; 12 months, 7 subjects, LOCF ref Investigator's Brochure): 4.5 ± 2.4 units; clinically effective dose available ([9]; 100 mg MTC capsules twice or three times daily, nominal doses 152-228 mg/day ref Baddeley et al., 2015, Wischik et al.): 72 to 109 mg/day; minimum effective dose in AD ([9]; placebo-controlled dose-finding Phase II trial ref 47): 138 mg/day; methemoglobin, highest value observed ([10]; Phase 2 study ref TRx-014-001): 8%; Diarrhea and related adverse events ([10]; highest dose, 228 mg MT/day ref TRx-014-001): 48%; discontinuation due to urinary adverse events ([10]; including urinary discoloration and staining ref TRx-014-001): 6%; discontinuation due to diarrhea and related adverse events, overall ([10]; ref TRx-014-001): 16%; mean methemoglobin levels ([10]; ref TRx-014-001): below 3.5%; subjects discontinued due to vomiting ([10]; ref TRx-014-001): 3%; methemoglobin, mean overall ([10]; those treated with MTC ref TRx-014-001): 0.8%
23 | CNCCCC12CCC(c3ccccc31)c1ccccc12 [Maprotiline] | 51 h | 

Row | Compound | Plasma Half-life, range or single value [1, 11] | also measured
24 | CCN(CC)C(=O)C1(c2ccccc2)CC1CN (centres unmarked) [Milnacipran] | 6 to 8 h | 
25 | O=C(NCCN1CCOCC1)c1ccc(Cl)cc1 [Moclobemide] | 1 to 2 h | 
26 | N[C@H]1CC[C@@H](c2ccc(Cl)c(Cl)c2)c2ccccc21 [N-desmethyls ertraline, N-desmethylsertraline] | 62 to 104 h | 
27 | CCc1nn(CCCN2CCN(c3cccc(Cl)c3)CC2)c(=O)n1CCOc1ccccc1 [Nefazodone] | 2 to 4 h | 
28 | CNCCC=C1c2ccccc2COc2ccccc21 [Nordoxepin] | 31 h | 
29 | NCCC(Oc1ccc(C(F)(F)F)cc1)c1ccccc1 (centres unmarked) [Norfluoxetine] |  | Plasma Half-life, Range [1, 11]: 4 to 16 days; Plasma Half-life, Mean [1]: 223 h
30 | CNCCC=C1c2ccccc2CCc2ccccc21 [Nortriptyline] | 16 to 93 h | 
31 | CN(C)CC(c1ccc(O)cc1)C1(O)CCCCC1 (centres unmarked) [O-desmeth ylvenlafaxine, O-desmethylvenlafaxine] | 9 to 13 h | 
32 | Fc1ccc([C@@H]2CCNC[C@H]2COc2ccc3c(c2)OCO3)cc1 [P aroxetine, Paroxetine] | 21 h | 
33 | CNCCCC1c2ccccc2C=Cc2ccccc21 [P rotriptyline, Protriptyline] | 55 to 198 h | 
34 | NNCCc1ccccc1 [Phenelzine] |  | Plasma Half-life [1, 12]: 11.6 h
35 | C#CCNC(C)Cc1ccccc1 (stereo not drawn) [R(-)-N -desmeth ylselegiline, R(-)-N-desmethylselegiline] | 18 to 25 h | 
36 | CN[C@H](C)Cc1ccccc1 [R(-)-methamphetamine] | 18 to 25 h | 
37 | C#CCN(C)[C@H](C)Cc1ccccc1 [Selegiline] | 10 h | 
38 | CN[C@H]1CC[C@@H](c2ccc(Cl)c(Cl)c2)c2ccccc21 [Sertraline] | 26 h | 
39 | C[C@H](NC(C)(C)C)[C@@H](O)c1cccc(Cl)c1 [Threohydrobupropion] | 24 to 50 h | Plasma Half-life, Mean [1]: 37 h
40 | CC(CN(C)C)CN1c2ccccc2CCc2ccccc21 (centres unmarked) [Tr i mi p r a mi n e, Trimipramine] | 11 to 23 h | 
41 | O=c1n(CCCN2CCN(c3cccc(Cl)c3)CC2)nc2ccccn12 [Trazodone] |  | Plasma Half-life [1, 12]: 10 h
42 | COc1ccc(C(CN(C)C)C2(O)CCCCC2)cc1 (centres unmarked) [V enlafaxine, Venlafaxine] | 3 to 7 h | 
43 | N#Cc1ccc2[nH]cc(CCCCN3CCN(c4ccc5oc(C(N)=O)cc5c4)CC3)c2c1 [V ilazod on e, Vilazodone] | 25 h | 
44 | CCN(CC)C(=O)[C@]1(c2ccccc2)C[C@@H]1CN [d-milnacipran] | 8 to 10 h | 
45 | CCN(CC)C(=O)[C@@]1(c2ccccc2)C[C@H]1CN [l-enatiomer] | 4 to 6 h | 
